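Compound exposure: 48 hours, 5 concentrations, 96-well plates. Here, GI50 denotes the concentration required for 50% inhibition of growth. TGI is the concentration that stops growth completely.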
Legend:
Assay in all cases: NCI-60 cell line screen, 48 h
OVCAR-5 ovarian = tested on: OVCAR-5 ovarian
EKVX NSCLC = tested on: EKVX NSCLC
MOLT-4 leukemia = tested on: MOLT-4 leukemia
NCI-H522 lung = tested on: NCI-H522 lung
A498 renal = tested on: A498 renal
DU-145 prostate = tested on: DU-145 prostate
CAKI-1 renal = tested on: CAKI-1 renal
MALME-3M melanoma = tested on: MALME-3M melanoma
HOP-62 NSCLC = tested on: HOP-62 NSCLC
M14 melanoma = tested on: M14 melanoma
MCF7 breast = tested on: MCF7 breast
SF-539 CNS = tested on: SF-539 CNS
TK-10 renal = tested on: TK-10 renal
SW-620 colon = tested on: SW-620 colon
SK-OV-3 ovarian = tested on: SK-OV-3 ovarian
SF-295 CNS = tested on: SF-295 CNS
UACC-62 melanoma = tested on: UACC-62 melanoma
SK-MEL-28 melanoma = tested on: SK-MEL-28 melanoma
HCT-15 colon = tested on: HCT-15 colon
UO-31 renal = tested on: UO-31 renal
OVCAR-8 ovarian = tested on: OVCAR-8 ovarian
BT-549 breast = tested on: BT-549 breast
SK-MEL-2 melanoma = tested on: SK-MEL-2 melanoma
MDA-MB-435 = tested on: MDA-MB-435
IGROV1 ovarian = tested on: IGROV1 ovarian
SNB-75 CNS = tested on: SNB-75 CNS
PC-3 prostate = tested on: PC-3 prostate
COLO 205 colon = tested on: COLO 205 colon
HS 578T breast = tested on: HS 578T breast
UACC-257 melanoma = tested on: UACC-257 melanoma
NCI-H23 lung = tested on: NCI-H23 lung
SNB-19 CNS = tested on: SNB-19 CNS
K-562 leukemia = tested on: K-562 leukemia
SK-MEL-5 melanoma = tested on: SK-MEL-5 melanoma
U251 CNS = tested on: U251 CNS
RXF 393 renal = tested on: RXF 393 renal
HCT-116 colon = tested on: HCT-116 colon
T-47D breast = tested on: T-47D breast
786-0 renal = tested on: 786-0 renal
A549 NSCLC = tested on: A549 NSCLC
RPMI-8226 leukemia = tested on: RPMI-8226 leukemia
OVCAR-4 ovarian = tested on: OVCAR-4 ovarian
LOX IMVI melanoma = tested on: LOX IMVI melanoma
OVCAR-3 ovarian = tested on: OVCAR-3 ovarian
MDA-MB-231 breast = tested on: MDA-MB-231 breast
HT29 colon = tested on: HT29 colon
SN12C renal = tested on: SN12C renal
NCI-H460 lung = tested on: NCI-H460 lung
NCI/ADR-RES ovarian = tested on: NCI/ADR-RES ovarian
CCRF-CEM leukemia = tested on: CCRF-CEM leukemia
SF-268 CNS = tested on: SF-268 CNS
ACHN renal = tested on: ACHN renal
NCI-H226 lung = tested on: NCI-H226 lung
KM12 colon = tested on: KM12 colon
HCC-2998 colon = tested on: HCC-2998 colon

Cn1c2ccccc2c2c(=O)n(CCCC(=O)OC(=NC3CCCCC3)NC3CCCCC3)c3c(-c4ccccc4)nnn3c21
GI50 (OVCAR-5 ovarian): > 100 µM
TGI (OVCAR-5 ovarian): > 100 µM
GI50 (EKVX NSCLC): > 100 µM
TGI (EKVX NSCLC): > 100 µM
GI50 (MOLT-4 leukemia): > 100 µM
TGI (MOLT-4 leukemia): > 100 µM
GI50 (NCI-H522 lung): 69.5 µM
TGI (NCI-H522 lung): > 100 µM
GI50 (A498 renal): 65.8 µM
TGI (A498 renal): > 100 µM
GI50 (DU-145 prostate): > 100 µM
TGI (DU-145 prostate): > 100 µM
GI50 (CAKI-1 renal): > 100 µM
TGI (CAKI-1 renal): > 100 µM
GI50 (MALME-3M melanoma): > 100 µM
TGI (MALME-3M melanoma): > 100 µM
GI50 (HOP-62 NSCLC): > 100 µM
TGI (HOP-62 NSCLC): > 100 µM
GI50 (M14 melanoma): > 100 µM
TGI (M14 melanoma): > 100 µM
GI50 (MCF7 breast): 64.1 µM
TGI (MCF7 breast): > 100 µM
GI50 (SF-539 CNS): 38.4 µM
TGI (SF-539 CNS): > 100 µM
GI50 (TK-10 renal): > 100 µM
TGI (TK-10 renal): > 100 µM
GI50 (SW-620 colon): > 100 µM
TGI (SW-620 colon): > 100 µM
GI50 (SK-OV-3 ovarian): > 100 µM
TGI (SK-OV-3 ovarian): > 100 µM
GI50 (SF-295 CNS): 79 µM
TGI (SF-295 CNS): > 100 µM
GI50 (UACC-62 melanoma): > 100 µM
TGI (UACC-62 melanoma): > 100 µM
GI50 (SK-MEL-28 melanoma): > 100 µM
TGI (SK-MEL-28 melanoma): > 100 µM
GI50 (HCT-15 colon): > 100 µM
TGI (HCT-15 colon): > 100 µM
GI50 (UO-31 renal): > 100 µM
TGI (UO-31 renal): > 100 µM
GI50 (OVCAR-8 ovarian): > 100 µM
TGI (OVCAR-8 ovarian): > 100 µM
GI50 (BT-549 breast): 72 µM
TGI (BT-549 breast): > 100 µM
GI50 (SK-MEL-2 melanoma): > 100 µM
TGI (SK-MEL-2 melanoma): > 100 µM
GI50 (MDA-MB-435): > 100 µM
TGI (MDA-MB-435): > 100 µM
GI50 (IGROV1 ovarian): 15.4 µM
TGI (IGROV1 ovarian): 94.4 µM
GI50 (SNB-75 CNS): 44.6 µM
TGI (SNB-75 CNS): > 100 µM
GI50 (PC-3 prostate): > 100 µM
TGI (PC-3 prostate): > 100 µM
GI50 (COLO 205 colon): > 100 µM
TGI (COLO 205 colon): > 100 µM
GI50 (HS 578T breast): > 100 µM
TGI (HS 578T breast): > 100 µM
GI50 (UACC-257 melanoma): > 100 µM
TGI (UACC-257 melanoma): > 100 µM
GI50 (NCI-H23 lung): > 100 µM
TGI (NCI-H23 lung): > 100 µM
GI50 (SNB-19 CNS): > 100 µM
TGI (SNB-19 CNS): > 100 µM
GI50 (K-562 leukemia): > 100 µM
TGI (K-562 leukemia): > 100 µM
GI50 (SK-MEL-5 melanoma): > 100 µM
TGI (SK-MEL-5 melanoma): > 100 µM
GI50 (U251 CNS): > 100 µM
TGI (U251 CNS): > 100 µM
GI50 (RXF 393 renal): 62.8 µM
TGI (RXF 393 renal): > 100 µM
GI50 (HCT-116 colon): 91.8 µM
TGI (HCT-116 colon): > 100 µM
GI50 (T-47D breast): 55.8 µM
TGI (T-47D breast): > 100 µM
GI50 (786-0 renal): > 100 µM
TGI (786-0 renal): > 100 µM
GI50 (A549 NSCLC): > 100 µM
TGI (A549 NSCLC): > 100 µM
GI50 (RPMI-8226 leukemia): > 100 µM
TGI (RPMI-8226 leukemia): > 100 µM
GI50 (OVCAR-4 ovarian): 38 µM
TGI (OVCAR-4 ovarian): > 100 µM
GI50 (LOX IMVI melanoma): > 100 µM
TGI (LOX IMVI melanoma): > 100 µM
GI50 (OVCAR-3 ovarian): > 100 µM
TGI (OVCAR-3 ovarian): > 100 µM
GI50 (MDA-MB-231 breast): 71.7 µM
TGI (MDA-MB-231 breast): > 100 µM
GI50 (HT29 colon): > 100 µM
TGI (HT29 colon): > 100 µM
GI50 (SN12C renal): > 100 µM
TGI (SN12C renal): > 100 µM
GI50 (NCI-H460 lung): > 100 µM
TGI (NCI-H460 lung): > 100 µM
GI50 (NCI/ADR-RES ovarian): 94.9 µM
TGI (NCI/ADR-RES ovarian): > 100 µM
GI50 (CCRF-CEM leukemia): > 100 µM
TGI (CCRF-CEM leukemia): > 100 µM
GI50 (SF-268 CNS): 98.2 µM
TGI (SF-268 CNS): > 100 µM
GI50 (ACHN renal): > 100 µM
TGI (ACHN renal): > 100 µM
GI50 (NCI-H226 lung): > 100 µM
TGI (NCI-H226 lung): > 100 µM
GI50 (KM12 colon): > 100 µM
TGI (KM12 colon): > 100 µM
GI50 (HCC-2998 colon): > 100 µM
TGI (HCC-2998 colon): > 100 µM

Source: PubChem BioAssay (NCI)
